Measurements from patent US20210220392A1, “MOLECULAR HYDROGEN-CONTAINING COMPOSITION FOR PREVENTION AND/OR IMPROVEMENT OF INFLAMMATORY BOWEL DISEASE” (MiZ Company Limited, priority 2020, published 2021).

Columns and labels:
[1] = known; versus H2; cited from earlier work
ulcerative colitis = assay: A case of ulcerative colitis improved by hydrogen inhalation (single patient case report); format: in vivo, human
Description: From around January 2018, the patient was taking a therapeutic agent for ulcerative colitis but was distressed because the disease was not cured with cyclic improvement and worsening. Additionally, the patient became depressed and gloomy, suffering insomnia and weight loss, because of the prolonged symptoms of ulcerative colitis. […] The patient drank two 500 mL PET bottles of hydrogen water per day.

[2] = room temperature, normal pressure; also printed as 1.6 mg/L; cited from earlier work
[3] = around June 9, six days after initiation of hydrogen gas inhalation plus hydrogen water

| SMILES | superoxide eliminating effect compared with H2 [1] | general condition (ulcerative colitis; [3]) | sleep condition (ulcerative colitis; [3]) | body weight (ulcerative colitis; by Aug. 22, 2019) | hemorrhage (ulcerative colitis; by Aug. 22, 2019 (end of inhalation therapy)) | hemorrhage (ulcerative colitis; by Jul. 31, 2019) | frequency of defecation and patient's vigor (ulcerative colitis; by Jun. 17, 2019) | stool consistency (had been watery) (ulcerative colitis; by Jun. 17, 2019) | hemorrhage during defecation (ulcerative colitis; by Jun. 17, 2019 (inhalation started Jun. 3, 2019)) | endoscopy: hemorrhage in the rectum (had been filled with blood) (ulcerative colitis; endoscopy on Sep. 25, 2019) | endoscopy: wall of the small and large intestines (ulcerative colitis; endoscopy on Sep. 25, 2019) | endoscopy: several polyps found in the stomach (ulcerative colitis; endoscopy on Sep. 25, 2019, inhalation of hydrogen gas and drinking of hydrogen water) | volume of melena during defecation (ulcerative colitis; person, ulcerative colitis, around June 9, six days after initiation of hydrogen gas inhalation (approx. 5.0%, 1-3 h/day) plus hydrogen water 7 ppm, two 500 mL bottles/day) | concentration of hydrogen dissolved in water [2] |
| --- | --- | --- | --- | --- | --- | --- | --- | --- | --- | --- | --- | --- | --- | --- |
| [2H][2H] [D2, deuterium] | stronger |  |  |  |  |  |  |  |  |  |  |  |  |  |
| [HH] [hydrogen gas, molecular hydrogen] |  | recovered | improved | increased to the healthy weight before the onset of the disease | no hemorrhage was found | no hemorrhage was found except that blood was attached to the stool only on the day after the patient had drunk alcohol | returned to the levels before the onset of the disease | became solid | further decreased | no hemorrhage in the rectum | recovered completely | disappeared | began to decrease | approximately 1.6 ppm |
